Tests used:
[1] = system: stem-like side-population (SP) cells; experiment: Sphere-formation assay, self-renewal of side-population cells (FIG. 18-21); format: cell-based; details: SP cells in low-adherence plates, stem-cell selective media, 10 days
Protocol: FIG. 18 is a group of cell micrographs showing inhibition of self-renewals by selected compounds in a sphere formation assay. Self-renewal of stem-like side-population (SP) cells was measured by a sphere-formation assay. Essentially, side-population cells were sorted by flow cytometry based on Hoechst 33342 dye exclusion as described in our publications. Isolated SP cells were grown in low-adherence plates in stem-cell selective media for 10 days (Singh and Chellappan, 2012, Bora-Singhal et al., 2015 etc). Self-renewal ability of the stem-like cells can be assessed by the formation of spheres under these conditions; non-stem cells cannot self-renew and form spheres.
The assay is conducted for 10 days, and the number of spheres larger than 50 μm in diameter is counted.

[2] = system: cisplatin-insensitive SP cells from H1650 cells; experiment: Sphere formation of cisplatin-insensitive SP cells (FIG. 30); format: cell-based; details: YAP1 inhibitors 2 uM, cisplatin 5 uM
Protocol: One feature of cancer stem cells is their drug resistance. Sphere formation of SP cells from H1650 cells was conduced in the presence of cisplatin; stem-like SP cells can self-renew and form spheres in stem-cell selective media and on low-adherence plates, even in the presence of 5 uM cisplatin (top right image).

[3] = molecular target: YAP1:OCT4 (Homo sapiens, UniProt P46937); experiment: In vitro YAP1:OCT4 ELISA binding assay; details: YAP1:OCT4 disruption
Chain of YAP1:OCT4 (P46937 whole entry): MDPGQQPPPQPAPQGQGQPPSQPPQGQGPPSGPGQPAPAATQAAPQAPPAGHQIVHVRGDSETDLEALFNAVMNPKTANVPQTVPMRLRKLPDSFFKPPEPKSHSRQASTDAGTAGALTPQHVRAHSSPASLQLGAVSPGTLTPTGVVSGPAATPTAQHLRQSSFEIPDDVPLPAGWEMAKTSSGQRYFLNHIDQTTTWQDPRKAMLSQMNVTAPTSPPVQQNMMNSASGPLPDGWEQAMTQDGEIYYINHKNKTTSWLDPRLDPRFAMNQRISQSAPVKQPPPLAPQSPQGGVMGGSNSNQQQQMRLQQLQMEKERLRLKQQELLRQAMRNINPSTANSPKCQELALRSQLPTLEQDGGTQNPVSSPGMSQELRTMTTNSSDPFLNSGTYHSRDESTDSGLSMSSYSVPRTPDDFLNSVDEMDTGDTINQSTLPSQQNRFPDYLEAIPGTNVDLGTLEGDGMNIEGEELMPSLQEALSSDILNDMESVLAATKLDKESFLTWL
Protocol: Activities of Compounds in the In Vitro YAP1:OCT4 ELISA Binding Assay
Selected compounds were assayed in a YAP1:OCT4 binding assay.

[4] = molecular target: T1, binding of Oct4 to YAP1 (Homo sapiens, UniProt P46937); experiment: Immunoprecipitation-Western blot of Oct4-YAP1 binding (FIG. 15); format: cell-based; details: 5 μM, 72 hours
T1 construct: Lysates were prepared from the cells, and immunoprecipitated with an antibody to OCt4; endogenous in cells; host or cells: A549 and H1650 cells
T1 sequence (P46937 whole entry): as above
Protocol: FIG. 15 is a group of gel images showing peptidomimetic compounds SR2-022, SR2-030, and SR2-033 reduced YAP1-Oct4 interaction as detected by IP-WB. An immunoprecipitation-Western blot experiment was conducted to assess if the indicated compounds could disrupt the binding of Oct4 to YAP1. IP-western blots were conducted using the protocols described in Bora-Singhal et al, 2015. Essentially, cells were treated with 5 μM of the indicated compounds for 72 hours. Lysates were prepared from the cells, and immunoprecipitated with an antibody to OCt4, or a control IgG. Lysates as well as the immunoprecipitates were resoled by a polyacrylamide gel and a western blot was conducted using an antibody to YAP1.

[5] = system: Sox2; experiment: Western blot of Sox2 expression (FIG. 17); format: cell-based; details: H1650 and A549 cells; 10 uM; 72 hours
Protocol: (§1) FIG. 17 is a group of gel images showing compounds SR2-046, SR2-051, and SR2-052 reduce Sox2, c-Myc expression in H165 and A549 cells. Cells were treated for 72 hours with the indicated compounds. A western blot showing the reduction of Sox2 expression in H1650 cells and in A549 cells after treatment with 10 uM of the drugs for 72 hours. There was a reduction in the levels of C-myc and phoshodiesterate kinase 2 as well. Western blotting was done using our standard protocols, as published in Bora-Singhal et al., 2015.

[6] = system: phoshodiesterate kinase 2; experiment: Western blot of phoshodiesterate kinase 2 levels (FIG. 17); format: cell-based; details: 10 uM; 72 hours
Protocol: as §1

[7] = system: c-Myc; experiment: Western blot of c-Myc expression (FIG. 17); format: cell-based; details: H1650 and A549 cells; 10 uM; 72 hours
Protocol: as §1

[8] = system: methotrexate insensitive H146 small-cell lung carcinoma cells; experiment: Sphere formation of methotrexate-insensitive cells (FIG. 31); format: cell-based; details: YAP1 inhibitors 2 uM, methotrexate 2.5 uM
Protocol: A similar experiment, where sphere formation of small-cell lung cancer cells, which are insensitive to methotrexate, was inhibited by YAP1 inhibitors. Sphere formation of SP cells from H146 small-cell lung carcinoma cells was conduced in the presence of 2.5 uM methotrexate; stem-like cells can self-renew and form spheres in stem-cell selective media and on low-adherence plates, even in the presence of 2.5 uM methotrexate.

Row | SMILES | IC50 [3] | other results
1 | N.N.[Cl][Pt][Cl] [Cisplatin] | – | number of spheres [1]: no effect; self-renewal (sphere formation) of dissociated cisplatin-insensitive spheres [2]: allowed self-renewal and formation of colonies
2 | COC(=O)[C@H](Cc1ccc(OCc2ccccc2)cc1)NC(=O)CC1CCN(C(=O)CCc2ccc(C(F)(F)F)cc2)CC1 [SR2-009, Methyl (S)-3-(4-(benzyloxy)phenyl)-2-(2-(1-(3-(4-(trifluoromethyl)phenyl)propanoyl)-piperidin-4-yl)acetamido)propanoate] | 1 to 10 µM | –
3 | COC(=O)[C@H](Cc1ccc(OCc2ccccc2)cc1)NC(=O)CC1CCN(C(=O)CCc2cccc(F)c2)CC1 [SR2-010, Methyl (S)-3-(4-(benzyloxy)phenyl)-2-(2-(1-(3-(3-fluorophenyl)propanoyl)piperidin-4-yl)acetamido)propanoate] | < 10 µM | –
4 | O=C(CC1CCN(C(=O)CCc2ccccc2)CC1)N[C@@H](Cc1ccc(OCc2ccccc2)cc1)C(=O)NC1CC1 [SR2-015, (S)-3-(4-(Benzyloxy)phenyl)-N-cyclopropyl-2-(2-(1-(3-phenylpropanoyl)piperidin-4-yl)acetamido)propanamide] | 1 to 10 µM | –
5 | O=C(CC1CCN(C(=O)CCc2ccccc2)CC1)N[C@@H](Cc1ccc(OCc2ccccc2)cc1)C(=O)NC1CCC1 [SR2-016, (S)-3-(4-(Benzyloxy)phenyl)-N-cyclobutyl-2-(2-(1-(3-phenylpropanoyl)piperidin-4-yl)acetamido)propanamide] | 1 to 10 µM | –
6 | O=C(CC1CCN(C(=O)CCc2ccccc2)CC1)N[C@@H](Cc1ccc(OCc2ccccc2)cc1)C(=O)NCC1CC1 [SR2-019, (S)-3-(4-(benzyloxy)phenyl)-N-(cyclopropylmethyl)-2-(2-(1-(3-phenylpropanoyl)piperidin-4-yl)acetamido)propanamide] | 1 to 10 µM | –
7 | O=C(CC1CCN(C(=O)CCc2ccccc2)CC1)N[C@@H](Cc1ccc(OCc2ccccc2)cc1)C(=O)O [SR2-022, (S)-3-(4-(Benzyloxy)phenyl)-2-(2-(1-(3-phenylpropanoyl)piperidin-4-yl)acetamido)propan-oic acid] | < 10 µM | YAP1-Oct4 interaction detected by IP-WB ([4]; A549 cells): completely abolished; YAP1-Oct4 interaction detected by IP-WB ([4]; H1650 cells): significantly reduced
8 | COC(=O)[C@H](Cc1ccc(OCc2ccccc2)cc1)NC(=O)CC1CCN(C(=O)CC(c2ccccc2)c2ccccc2)CC1 [SR2-029, Methyl (S)-3-(4-(benzyloxy)phenyl)-2-(2-(1-(3,3-diphenylpropanoyl)piperidin-4-yl)acetamido)propanoate] | < 10 µM | –
9 | COC(=O)[C@H](Cc1ccc(OCc2ccccc2)cc1)NC(=O)CC1CCN(C(=O)CCc2ccc(Cl)c(Cl)c2)CC1 [SR2-030, Methyl (S)-3-(4-(benzyloxy)phenyl)-2-(2-(1-(3-(3,4-dichlorophenyl)propanoyl)piperidin-4-yl)acetamido)propanoate] | < 10 µM | YAP1-Oct4 interaction detected by IP-WB ([4]; A549 cells): completely abolished; YAP1-Oct4 interaction detected by IP-WB ([4]; H1650 cells): significantly reduced
10 | COC(=O)[C@H](Cc1ccc(OCc2ccccc2)cc1)NC(=O)CC1CCN(C(=O)CCc2cccc(Cl)c2)CC1 [SR2-032, Methyl (S)-3-(4-(benzyloxy)phenyl)-2-(2-(1-(3-(3-chlorophenyl)propanoyl)piperidin-4-yl)acetamido)propanoate] | < 10 µM | –
11 | COC(=O)[C@H](Cc1ccc(OCc2ccccc2)cc1)NC(=O)CC1CCN(C(=O)CCc2cccc(C)c2)CC1 [SR2-036, Methyl (S)-3-(4-(benzyloxy)phenyl)-2-(2-(1-(3-(m-tolyl)propanoyl)piperidin-4-yl)acetamido)propanoate] | 1 to 10 µM | –
12 | COC(=O)[C@H](Cc1ccc(OCc2ccccc2)cc1)NC(=O)CC1CCN(C(=O)CCCc2ccccc2)CC1 [SR2-046, Methyl (S)-3-(4-(benzyloxy)phenyl)-2-(2-(1-(4-phenylbutanoyl)piperidin-4-yl)acetamido)-propanoate] | < 10 µM | Sox2 expression (western blot) [5]: reduce; levels of phoshodiesterate kinase 2 (western blot) [6]: reduction; c-Myc expression (western blot) [7]: reduce
13 | COC(=O)[C@H](Cc1ccc(OCc2ccccc2)cc1)NC(=O)CC1CCN(C(=O)c2ccc(NC(=O)OC(C)(C)C)cc2)CC1 [SR2-051, Methyl (S)-3-(4-(benzyloxy)phenyl)-2-(2-(1-(4-((tert-butoxycarbonyl)amino)benzoyl)piperidin-4-yl)acetamido)propanoate] | < 10 µM | Sox2 expression (western blot) [5]: reduce; levels of phoshodiesterate kinase 2 (western blot) [6]: reduction; c-Myc expression (western blot) [7]: reduce
14 | COC(=O)[C@H](Cc1ccc(OCc2ccccc2)cc1)NC(=O)CC1CCN(C(=O)Cc2ccc(NC(=O)OC(C)(C)C)cc2)CC1 [SR2-052, Methyl (S)-3-(4-(benzyloxy)phenyl)-2-(2-(1-(2-(4-((tert-butoxycarbonyl)amino)phenyl)acetyl)piperidin-4-yl)acetamido)propanoate] | < 10 µM | Sox2 expression (western blot) [5]: reduce; levels of phoshodiesterate kinase 2 (western blot) [6]: reduction; c-Myc expression (western blot) [7]: reduce
15 | COC(=O)[C@H](Cc1ccc(OCc2ccccc2)cc1)NC(=O)CC1CCN(C(=O)CCc2cc(Cl)cc(Cl)c2)CC1 [SR2-106, Methyl (S)-3-(4-(benzyloxy)phenyl)-2-(2-(1-(3-(3,5-dichlorophenyl)propanoyl)piperidin-4-yl)acetamido)propanoate] | < 10 µM | –
16 | COC(=O)[C@H](Cc1ccc(OCc2ccccc2)cc1)NC(=O)CC1CCN(C(=O)CCc2cccc(Br)c2)CC1 [SR2-107, Methyl (S)-3-(4-(benzyloxy)phenyl)-2-(2-(1-(3-(3-bromophenyl)propanoyl)piperidin-4-yl)acetamido)propanoate] | < 10 µM | –
17 | O=C(CC1CCN(C(=O)CCc2ccc(Cl)c(Cl)c2)CC1)N[C@@H](Cc1ccc(OCc2ccccc2)cc1)C(=O)O [SR2-113, (S)-3-(4-(Benzyloxy)phenyl)-2-(2-(1-(3-(3,4-dichlorophenyl)propanoyl)piperidin-4-yl)acetamido)propanoic acid] | < 10 µM | –
18 | N#Cc1ccc(CCC(=O)N2CCC(CC(=O)N[C@@H](Cc3ccc(OCc4ccccc4)cc3)C(=O)O)CC2)cc1 [SR2-114, (S)-3-(4-(Benzyloxy)phenyl)-2-(2-(1-(3-(4-cyanophenyl)propanoyl)piperidin-4-yl)acetamido)propanoic acid] | < 10 µM | –
19 | O=C(CC1CCN(C(=O)CCc2cccc(F)c2)CC1)N[C@@H](Cc1ccc(OCc2ccccc2)cc1)C(=O)O [SR2-117, (S)-3-(4-(Benzyloxy)phenyl)-2-(2-(1-(3-(3-fluorophenyl)propanoyl)piperidin-4-yl)acetamido)propanoic acid] | < 10 µM | –
20 | O=C(CC1CCN(C(=O)CCc2ccc(F)cc2)CC1)N[C@@H](Cc1ccc(OCc2ccccc2)cc1)C(=O)O [SR2-120, (S)-3-(4-(Benzyloxy)phenyl)-2-(2-(1-(3-(4-fluorophenyl)propanoyl)piperidin-4-yl)acetamido)propanoic acid] | < 10 µM | –
21 | CCOc1ccc(CCC(=O)N2CCC(CC(=O)N[C@@H](Cc3ccc(OCc4ccccc4)cc3)C(=O)O)CC2)cc1 [SR2-122, (S)-3-(4-(Benzyloxy)phenyl)-2-(2-(1-(3-(4-ethoxyphenyl)propanoyl)piperidin-4-yl)acetamido)propanoic acid] | < 10 µM | –
22 | CN(Cc1cnc2nc(N)nc(N)c2n1)c1ccc(C(=O)N[C@@H](CCC(=O)O)C(=O)O)cc1 [methotrexate] | – | self-renewal (sphere formation) of dissociated methotrexate-insensitive spheres [8]: allowed self-renewal and formation of colonies
